Laboratory results from ChEMBL document CHEMBL4229518, “New β-lactam - Tetramic acid hybrids show promising antibacterial activities” (Bioorg Med Chem Lett, 2018).
Converted amounts (≈) assume the structure as drawn. The source made the active and inactive calls. No cut-off for these calls is given here.

Experiments:
[1] = test system: Acinetobacter baumannii; test: Antimicrobial activity against Acinetobacter baumannii ATCC 19606 after 18 to 20 hrs by microbroth dilution method; assay type: functional; settings: ATCC 19606 = CIP 70.34 = JCM 6841
[2] = test system: Escherichia coli; test: Induction of proton motive force collapse in Escherichia coli BW25113 at 100 uM by flow cytometry; assay type: functional, organism-based
[3] = test system: Klebsiella pneumoniae; test: Antimicrobial activity against Klebsiella pneumoniae isolate SJ 1 after 18 to 20 hrs by microbroth dilution method; assay type: functional
[4] = test system: Klebsiella pneumoniae; test: Antimicrobial activity against Klebsiella pneumoniae isolate SJ 2 after 18 to 20 hrs by microbroth dilution method; assay type: functional
[5] = test system: Klebsiella pneumoniae; test: Antimicrobial activity against Klebsiella pneumoniae isolate SJ 3 after 18 to 20 hrs by microbroth dilution method; assay type: functional
[6] = test system: Proteus mirabilis; test: Antimicrobial activity against Proteus mirabilis ATCC 25933 after 18 to 20 hrs by microbroth dilution method; assay type: functional
[7] = test system: HepG2; test: Cytotoxicity against human HepG2 cells; assay type: cell-based
[8] = test system: Vero; test: Cytotoxicity against African green monkey Vero cells; assay type: cell-based; settings: Chlorocebus sabaeus
[9] = test system: Klebsiella pneumoniae; test: Antimicrobial activity against Klebsiella pneumoniae isolate SJ 5 after 18 to 20 hrs by microbroth dilution method; assay type: functional
[10] = test system: Escherichia coli; test: Antimicrobial activity against Escherichia coli ATCC 35218 expressing TEM-1 beta lactamases after 18 to 20 hrs by microbroth dilution method; assay type: functional
[11] = test system: Escherichia coli; test: Antimicrobial activity against Escherichia coli isolate SJ 1 after 18 to 20 hrs by microbroth dilution method; assay type: functional
[12] = test system: Escherichia coli; test: Antimicrobial activity against Escherichia coli BW25113 after 18 to 20 hrs by microbroth dilution method; assay type: functional
[13] = test system: Pseudomonas aeruginosa; test: Antimicrobial activity against Pseudomonas aeruginosa PAO1 after 18 to 20 hrs by microbroth dilution method; assay type: functional
[14] = test system: Klebsiella pneumoniae; test: Antimicrobial activity against Klebsiella pneumoniae ATCC 33495 after 18 to 20 hrs by microbroth dilution method; assay type: functional
[15] = test system: Escherichia coli; test: Antimicrobial activity against Escherichia coli isolate SJ 2 after 18 to 20 hrs by microbroth dilution method; assay type: functional
[16] = test system: Escherichia coli; test: Antimicrobial activity against Escherichia coli isolate SJ 6 after 18 to 20 hrs by microbroth dilution method; assay type: functional
[17] = test system: Escherichia coli; test: Antimicrobial activity against tolC deficient Escherichia coli JW5503-1 after 18 to 20 hrs by microbroth dilution method; assay type: functional
[18] = test system: Escherichia coli; test: Antimicrobial activity against Escherichia coli ATCC 25922 after 18 to 20 hrs by microbroth dilution method; assay type: functional
[19] = test system: Escherichia coli; test: Antimicrobial activity against Escherichia coli isolate SJ 5 after 18 to 20 hrs by microbroth dilution method; assay type: functional
[20] = test system: Klebsiella pneumoniae; test: Antimicrobial activity against Klebsiella pneumoniae isolate SJ 4 after 18 to 20 hrs by microbroth dilution method; assay type: functional
[21] = test system: Escherichia coli; test: Antimicrobial activity against Escherichia coli isolate SJ 4 after 18 to 20 hrs by microbroth dilution method; assay type: functional
[22] = test system: Escherichia coli; test: Antimicrobial activity against Escherichia coli isolate SJ 3 after 18 to 20 hrs by microbroth dilution method; assay type: functional
[23] = test system: Streptococcus pneumoniae; test: Antimicrobial activity against Streptococcus pneumoniae R6 after 18 to 20 hrs by microbroth dilution method; assay type: functional
[24] = test system: Streptococcus pyogenes; test: Antimicrobial activity against Streptococcus pyogenes ATCC 700294 after 18 to 20 hrs by microbroth dilution method; assay type: functional; settings: M1 GAS
[25] = test system: Stenotrophomonas maltophilia; test: Antimicrobial activity against Stenotrophomonas maltophilia ATCC 700475 after 18 to 20 hrs by microbroth dilution method; assay type: functional
[26] = test system: Bacillus anthracis; test: Antimicrobial activity against Bacillus anthracis Sterne 34F2 after 18 to 20 hrs by microbroth dilution method; assay type: functional
[27] = test system: Staphylococcus aureus; test: Potency index, ratio of […] MIC to compound MIC for […] Staphylococcus aureus ATCC 29213; assay type: functional
[28] = test system: Staphylococcus aureus; test: Potency index, ratio of cefaclor MIC to compound MIC for methicillin-resistant Staphylococcus aureus NRS70; assay type: functional
[29] = test system: Enterococcus faecalis; test: Antimicrobial activity against Enterococcus faecalis ATCC 33186 after 18 to 20 hrs by microbroth dilution method; assay type: functional
[30] = test system: Bacillus cereus; test: Antimicrobial activity against Bacillus cereus ATCC 14579 after 18 to 20 hrs by microbroth dilution method; assay type: functional
[31] = test system: Bacillus subtilis; test: Antimicrobial activity against Bacillus subtilis ATCC 23857 after 18 to 20 hrs by microbroth dilution method; assay type: functional
[32] = test system: Staphylococcus aureus; test: Antimicrobial activity against methicillin-susceptible Staphylococcus aureus ATCC 29213 after 18 to 20 hrs by microbroth dilution method; assay type: functional
[33] = test system: Staphylococcus aureus; test: Potency index, ratio of […] MIC to compound MIC for methicillin-resistant Staphylococcus aureus NRS70; assay type: functional
[34] = test system: Staphylococcus aureus; test: Antimicrobial activity against methicillin-susceptible Staphylococcus aureus NRS70 after 18 to 20 hrs by microbroth dilution method; assay type: functional
[35] = test system: Staphylococcus aureus; test: Potency index, ratio of cefaclor MIC to compound MIC for […] Staphylococcus aureus ATCC 29213; assay type: functional
[36] = test system: Enterobacter cloacae; test: Antimicrobial activity against Enterobacter cloacae ATCC 13047 after 18 to 20 hrs by microbroth dilution method; assay type: functional; settings: subsp. cloacae ATCC 13047

SMILES	MIC [1] [µg/mL]	Activity [2]	MIC [3] [µg/mL]	MIC [4] [µg/mL]	MIC [5] [µg/mL]	MIC [6] [µg/mL]	MIC [9] [µg/mL]	MIC [10] [µg/mL]	MIC [11] [µg/mL]	MIC [12] [µg/mL]	MIC [13] [µg/mL]	MIC [14] [µg/mL]	MIC [15] [µg/mL]	MIC [16] [µg/mL]	MIC [17] [µg/mL]	MIC [18] [µg/mL]	MIC [19] [µg/mL]	MIC [20] [µg/mL]	MIC [21] [µg/mL]	MIC [22] [µg/mL]	further results
CO[C@@]1(NC(=O)CCCC(=O)C2=C(O)[C@@H](CCCNC(=N)N)NC2=O)C(=O)N2C(C(=O)O)=C(CSc3nnnn3C)CS[C@@H]21	> 200	inactive	3.13 (≈ 4.8 µM)	3.13 (≈ 4.8 µM)	6.25 (≈ 9.58 µM)	6.25 (≈ 9.58 µM)	12.5 (≈ 19.2 µM)	3.13 (≈ 4.8 µM)	3.13 (≈ 4.8 µM)	6.25 (≈ 9.58 µM)	> 200	6.25 (≈ 9.58 µM)	3.13 (≈ 4.8 µM)	100 (≈ 153 µM)	6.25 (≈ 9.58 µM)	3.13 (≈ 4.8 µM)	12.5 (≈ 19.2 µM)	6.25 (≈ 9.58 µM)	25 (≈ 38.3 µM)	3.13 (≈ 4.8 µM)	IC50 [7]: > 200 µM; IC50 [8]: > 200 µM
CC(=O)OCC1=C(C(=O)O)N2C(=O)[C@@H](NC(=O)CCNC(=O)C3=C(O)C(CC(C)C)NC3=O)[C@H]2SC1 (some centres not stated)	> 200	–	–	–	–	200 (≈ 381 µM)	–	–	–	> 200	> 200	> 200	–	–	> 200	–	–	–	–	–	MIC [23]: 12.5 µg/mL (≈ 23.8 µM); MIC [24]: 12.5 µg/mL (≈ 23.8 µM); MIC [25]: > 200 µg/mL; MIC [26]: 25 µg/mL (≈ 47.7 µM); Ratio [27]: >=16; Ratio [28]: >=16; MIC [29]: 200 µg/mL (≈ 381 µM); MIC [30]: > 200 µg/mL; MIC [31]: 3.13 µg/mL (≈ 5.97 µM); MIC [32]: 6.25 µg/mL (≈ 11.9 µM); Ratio [33]: >=16; MIC [34]: 6.25 µg/mL (≈ 11.9 µM); Ratio [35]: >=16; MIC [36]: > 200 µg/mL
C=CC1=C(C(=O)O)N2C(=O)[C@@H](NC(=O)CCNC(=O)C3=C(O)C(CC(C)C)NC3=O)[C@H]2SC1 (some centres not stated)	> 200	–	–	–	–	100 (≈ 209 µM)	–	–	–	> 200	> 200	> 200	–	–	> 200	–	–	–	–	–	MIC [23]: 6.25 µg/mL (≈ 13.1 µM); MIC [24]: 12.5 µg/mL (≈ 26.1 µM); MIC [25]: > 200 µg/mL; MIC [26]: 6.25 µg/mL (≈ 13.1 µM); Ratio [27]: 64; Ratio [28]: 32; MIC [29]: > 200 µg/mL; MIC [30]: > 200 µg/mL; MIC [31]: 6.25 µg/mL (≈ 13.1 µM); MIC [32]: 3.13 µg/mL (≈ 6.54 µM); Ratio [33]: 64; MIC [34]: 3.13 µg/mL (≈ 6.54 µM); Ratio [35]: 32; MIC [36]: > 200 µg/mL
CO[C@@]1(NC(=O)CCCC(=O)C2=C(O)[C@@H](CC(C)C)NC2=O)C(=O)N2C(C(=O)O)=C(CSc3nnnn3C)CS[C@@H]21	> 200	inactive	12.5 (≈ 20.5 µM)	50 (≈ 82 µM)	50 (≈ 82 µM)	12.5 (≈ 20.5 µM)	200 (≈ 328 µM)	50 (≈ 82 µM)	100 (≈ 164 µM)	50 (≈ 82 µM)	> 200	100 (≈ 164 µM)	200 (≈ 328 µM)	> 200	12.5 (≈ 20.5 µM)	> 200	200 (≈ 328 µM)	> 200	> 200	100 (≈ 164 µM)	–
